A value given as a limit tells only on which side of the number the result lay.

For series [1], the system named is SARS-CoV-2 stock strain NL/2020. As to the kind of experiment: Intracellular viral antigen (N protein) accumulation by immunofluorescence, A549-ACE2. Particulars: Severe acute respiratory syndrome coronavirus 2; A549-ACE2, MOI 0.005, viral antigen staining, 48 h. The class given is cell-based.
The test system is the same in series [2]. Nature of the series: Protective effect against virus-induced cytopathic effect (crystal violet staining of Vero-E6 monolayer). The class given is cell-based. The conditions noted are these: Vero-E6, SARS-CoV-2 MOI 0.001, 72 h; for minimal effective concentration / EC50: Severe acute respiratory syndrome coronavirus 2, Vero C1008, 72 h; for minimal effective concentration: read-out: PC MIN (lowest protective concentration); for EC50: lowest fully protecting concentration averaged with next lower dilution, read-out: ESTIMATED EC50.

Series [3] has the same test system. Nature of the series: Intracellular viral antigen (N protein) accumulation by immunofluorescence, Calu3. The class given is cell-based. Particulars: Severe acute respiratory syndrome coronavirus 2; Calu-3, MOI 0.005, viral antigen staining, 48 h.
For series [4] the test system is unchanged. As to the kind of experiment: Intracellular viral antigen (N protein) accumulation by immunofluorescence, Vero-E6. It counts as cell-based. The conditions noted are these: Severe acute respiratory syndrome coronavirus 2, Vero C1008; Vero-E6, MOI 0.005, viral antigen staining, 24 h.
A short description of series [5]: in vitro. Particulars: African green monkey.

For orientation: EC50 means the concentration needed to bring the measured effect to its halfway point. As usually defined, the EC90 is the concentration needed for an effect of 90%. `COC(=O)c1cc(Br)ccc1NC(C#N)[C@H](Cc1c[nH]c2ccccc12)NC(=O)OC(C)(C)C` (stereo partly drawn) [(Ib), methyl 5-bromo-2-(((2S)-2-((tert-butoxycarbonyl)amino)-1-cyano-3-(1H-indol-3-yl)propyl)amino)benzoate]: the EC50 in series [1] was 1.8 µM; in series [2] it was 0.58 µM; in series [3], 1.2 µM; in series [4] it was 0.5 µM. For the same compound, the figures for the EC90 in series [1], in series [3] and in series [4] were 2.7 µM, 2.5 µM and 2.2 µM, respectively. The minimal effective concentration in series [2] (50 to 0.78 μM tested) was found to be 0.78 µM. Also, in series [5], the CC50 at 48 h was above 12.5 µM.
With `CC(C)(C)OC(=O)N[C@@H](Cc1c[nH]c2ccccc12)C(C#N)Nc1ccc(Cl)cc1C(=O)c1ccccc1` (stereo partly drawn) [(Id), (3S)-3-(tert-Butoxycarbonylamino)-4-(1H-indol-3-yl)-2-((2-benzoyl-4-chlorophenyl)amino)butanenitrile], the EC50 in series [1] is 0.6 µM; in series [2], 0.58 µM; in series [3], 0.3 µM; in series [4], 0.2 µM. The EC90 is 1.4 µM in series [1], 1.1 µM in series [3] and 0.5 µM in series [4]. Also, the minimal effective concentration in series [2] (50 to 0.78 μM tested) amounted to 0.78 µM. The CC50 at 48 h in series [5] was above 50 µM.
On to `CCOC(=O)c1ccccc1NC(C#N)[C@H](Cc1c[nH]c2ccccc12)NC(=O)OC(C)(C)C` (stereo partly drawn) [(Ih), ethyl 2-(((2S)-2-((tert-butoxycarbonyl)amino)-1-cyano-3-(1H-indol-3-yl)propyl)amino)-benzoate], for which the EC50 in series [1] is 4 µM; in series [2] it was 1.17 µM; in series [3] it was 3.7 µM; in series [4], 0.1 µM. For the same compound, the EC90 was 7 µM in series [1], 4 µM in series [3] and 2.5 µM in series [4]. Further, in series [2] (50 to 0.78 μM tested), the minimal effective concentration worked out at 1.56 µM. In series [5], this compound displayed a CC50 at 48 h above 12.5 µM.
For the compound `CC(C)(C)OC(=O)N[C@@H](Cc1c[nH]c2ccccc12)C(C#N)Nc1ccccc1C(=O)OC(C)(C)C` (stereo partly drawn) [(Iv), tert-Butyl 2-(((2S)-2-((tert-butoxycarbonyl)amino)-1-cyano-3-(1H-indol-3-yl)propyl)amino)-benzoate], the minimal effective concentration in series [2] (50 to 0.78 μM tested) is 3.12 µM. Also, the EC50 in series [2] was 2.34 µM.
Turning to `CCCCc1ccc(-c2ccc(NC(C#N)[C@H](Cc3c[nH]c4ccccc34)NC(=O)OC(C)(C)C)c(C(=O)OC)c2)cc1` (stereo partly drawn) [(Iw), methyl 4-(((2S)-2-((tert-butoxycarbonyl)amino)-1-cyano-3-(1H-indol-3-yl)propyl)amino)-4′-butyl-[1,1′-biphenyl]-3-carboxylate], the EC50 in series [2] was 2.34 µM. In addition, the “PC MIN (lowest protective concentration)” value in series [2] (50 to 0.78 μM tested) is 3.12 µM.
Turning to `CCN(CC)c1ccc(-c2ccc(NC(C#N)[C@H](Cc3c[nH]c4ccccc34)NC(=O)OC(C)(C)C)c(C(=O)OC)c2)cc1` (stereo partly drawn) [(Ix), methyl 4-(((2S)-2-((tert-butoxycarbonyl)amino)-1-cyano-3-(1H-indol-3-yl)propyl)amino)-4′-(diethylamino)-[1,1′-biphenyl]-3-carboxylate], the minimal effective concentration in series [2] (50 to 0.78 μM tested) turned out to be 3.12 µM. Also, in series [2], the EC50 is 2.34 µM.
Taken in the same sequence, the figures for `CCCOc1ccc(-c2ccc(NC(C#N)[C@H](Cc3c[nH]c4ccccc34)NC(=O)OC(C)(C)C)c(C(=O)OC)c2)cc1` (stereo partly drawn) [(Iy), methyl 4-(((2S)-2-((tert-butoxycarbonyl)amino)-1-cyano-3-(1H-indol-3-yl)propyl)amino)-4′-propoxy-[1,1′-biphenyl]-3-carboxylate] were 3.12 µM and 2.34 µM.
Taken in the same sequence, the figures for `COC(=O)c1cc(-c2cccc(C(C)(C)C)c2)ccc1NC(C#N)[C@H](Cc1c[nH]c2ccccc12)NC(=O)OC(C)(C)C` (stereo partly drawn) [(Iz), methyl 4-(((2S)-2-((tert-butoxycarbonyl)amino)-1-cyano-3-(1H-indol-3-yl)propyl)amino)-3′-(tert-butyl)-[1,1′-biphenyl]-3-carboxylate] were 3.12 µM and 2.34 µM.
